The values below come from ChEMBL document CHEMBL1221293, “New effective inhibitors of the Abelson kinase” (Bioorg Med Chem, 2010).

Structures are written as SMILES.

Chain of Tyrosine-protein kinase ABL1 (P00519 whole entry): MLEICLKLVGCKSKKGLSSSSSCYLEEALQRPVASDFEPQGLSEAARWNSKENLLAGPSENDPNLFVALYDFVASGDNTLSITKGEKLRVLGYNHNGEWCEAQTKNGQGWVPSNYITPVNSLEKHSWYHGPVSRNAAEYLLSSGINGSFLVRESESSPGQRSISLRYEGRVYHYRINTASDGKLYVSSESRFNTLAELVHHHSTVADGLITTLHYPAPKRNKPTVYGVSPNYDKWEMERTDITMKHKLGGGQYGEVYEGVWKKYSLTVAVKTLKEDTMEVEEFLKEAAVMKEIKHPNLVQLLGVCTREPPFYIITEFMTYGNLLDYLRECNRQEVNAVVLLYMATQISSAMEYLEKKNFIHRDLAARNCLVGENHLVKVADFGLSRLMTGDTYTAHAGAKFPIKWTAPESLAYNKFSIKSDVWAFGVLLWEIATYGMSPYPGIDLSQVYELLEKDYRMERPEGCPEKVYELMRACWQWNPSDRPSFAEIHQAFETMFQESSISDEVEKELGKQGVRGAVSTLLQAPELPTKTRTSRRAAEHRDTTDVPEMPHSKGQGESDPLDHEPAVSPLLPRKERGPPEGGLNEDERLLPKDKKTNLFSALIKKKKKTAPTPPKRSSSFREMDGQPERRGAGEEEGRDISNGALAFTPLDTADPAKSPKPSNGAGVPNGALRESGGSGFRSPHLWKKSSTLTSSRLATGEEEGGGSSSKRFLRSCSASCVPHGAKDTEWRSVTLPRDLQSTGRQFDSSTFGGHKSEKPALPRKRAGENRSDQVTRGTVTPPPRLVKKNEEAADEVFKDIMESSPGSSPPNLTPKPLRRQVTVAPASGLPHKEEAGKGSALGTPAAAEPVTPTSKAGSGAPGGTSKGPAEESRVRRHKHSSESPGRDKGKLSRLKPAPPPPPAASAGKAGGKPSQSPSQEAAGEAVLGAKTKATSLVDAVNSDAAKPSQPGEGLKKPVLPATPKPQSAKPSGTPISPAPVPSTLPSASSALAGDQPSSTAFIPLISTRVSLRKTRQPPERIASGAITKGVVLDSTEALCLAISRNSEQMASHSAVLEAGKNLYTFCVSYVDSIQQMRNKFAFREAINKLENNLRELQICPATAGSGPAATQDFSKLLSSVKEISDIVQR

The experiment has as its target Tyrosine-protein kinase ABL1 (Homo sapiens, UniProt P00519).
Description: Inhibition of recombinant c-Abl after 30 mins
As a reminder, the Ki is a dissociation constant, usually derived from enzyme kinetics or from competition with a known ligand. For `Cn1c(=O)c(-c2c(Cl)cccc2Cl)cc2cnc(NCc3cccc(C(=O)CCCC[C@@H]4SC[C@@H]5NC(=O)N[C@@H]54)c3)nc21`, the affinity, expressed as Ki, was 20 nM. In other words, the double-digit nanomolar range.

Molecule `Cn1c(=O)c(-c2c(F)cccc2F)cc2cnc(NCc3cccc(N)c3)nc21` yielded a Ki of 40 nM. Compared with the last molecule, the Ki is about 2-fold higher.

Regarding `Cn1c(=O)c(-c2c(Cl)cccc2Cl)cc2cnc(NCc3cccc(N)c3)nc21`, the Ki was 8 nM. To `CCCCCCNc1cccc(CNc2ncc3cc(-c4c(Cl)cccc4Cl)c(=O)n(C)c3n2)c1` belongs 900 nM; to `Cn1c(=O)c(-c2ccccc2)cc2cnc(NCc3cccc(N)c3)nc21`, 2000 nM. In turn, `Cn1c(=O)c(-c2ccccc2Br)cc2cnc(NCc3cccc(N)c3)nc21` displayed an inhibition constant (Ki) of 40 nM.

As for `CSc1cccc(CNc2ncc3cc(-c4c(Cl)cccc4Cl)c(=O)n(C)c3n2)c1`, the Ki worked out at 70 nM. This Ki is about 1.8-fold higher than that of the molecule before. As to `Cn1c(=O)c(-c2c(Cl)cccc2Cl)cc2cnc(NCc3cccc(NC(=O)CN)c3)nc21`, the Ki is 20 nM. Against the preceding molecule, the Ki is about 3.5-fold lower. With `Cn1c(=O)c(-c2c(Cl)cccc2Cl)cc2cnc(Nc3cccc(NC(=O)CN)c3)nc21` the figure was 0.02 nM; with `Cn1c(=O)c(-c2ccccc2Cl)cc2cnc(NCc3cccc(N)c3)nc21`, 60 nM.
